Assays:
[1] = tested on: liver mitochondrial glycerol phosphate dehydrogenase (mGPDH) activity; assay: Subacute study in normal rats, continuous infusion: liver mGPDH activity; format: in vivo, rats (Sprague-Dawley); conditions: continuous infusion 1 mg/kg/day
Source text: (§1) Efficacy endpoints include serum cholesterol, liver mitochondrial glycerol phosphate dehydrogenase (mGPDH) activity and the expression of relevant liver genes (e.g., the LDL-receptor, apoB, cpt-1, spot14 and apoAI). Safety parameters include heart weight, heart rate, heart mGPDH activity, the expression and key genes involved in cardiac structure and function (e.g., Serca2, HCN2, Kv1.5, MHCα, MHCβ, Alpha1c), and standard plasma chemistry analysis (liver enzymes, electrolytes, creatinine). Endocrine effects are monitored by analysis of serum thyroid stimulating hormone (TSH). [Taylor et al., Mol Pharmacol 52(3): 542-7 (1997); Weitzel et al., Eur J Biochem 268(14):4095-4103 (2001)]
(§2) Methods: mGPDH activity was analyzed in isolated mitochondria using 2-(4-iodophenyl)-3-(4-nitrophenyl)-5-phenyl tetrazolium chloride as the terminal electron acceptor (Gardner R S, Analytical Biochemistry 59:272 (1974)). Commercially available GPDH was used in each assay as a standard (Sigma, St. Louis, Mo.). Changes in levels of mRNA for liver and heart genes are analyzed using reverse transcriptase followed by real-time PCR analysis. The analysis is performed using an iCycler instrument (Biorad) and appropriate primers by means of standard methodology [e.g., Schwab D A et al. (2000) Life Sciences 66: 1683-94]. The amounts of mRNA are normalized to an internal control, typically, cyclophilin. Serum TSH is measured using an enzyme immunoassay (EIA) kit designed for rat TSH (Amersham Pharmacia Biotech, Arlington Heights, Ill.).
(§3) Normal rats (Sprague-Dawley) were maintained on a standard diet. […] The compounds were brought up to an appropriate volume using PBS and BSA to maintain solubility within the pump. The compounds were chemically stable in the excipient at 37° C. for 7 days.
(§4) Values are expressed as percent of control. (Table 4)

liver triglycerides = assay: Hepatic triglyceride content in normal rats, chronic infusion; format: in vivo; conditions: normal rats chronically infused for 7 days
Description: Normal rats were chronically infused with Compound 7 for 7 days. Liver triglycerides were analyzed following lipid extraction by the Bligh Dyer method (Bligh E G and Dyer W J, A rapid method of total lipid extraction and purification. Can J Med. Sci. 1959 (August); 37(8):911-7, incorporated herein by reference). Total triglycerides were analyzed in the liver extracts by an enzymatic assay (Thermo Electron Corporation). Total lipid was normalized to initial liver weight and triglyceride content was normalized to liver weight. […] There was a 4% reduction in liver triglycerides for this group and the results were not statistically significant.

heart mGPDH activity = assay: Subacute study in normal rats, continuous infusion: heart mGPDH activity; format: in vivo, rats (Sprague-Dawley); conditions: continuous infusion 1 mg/kg/day
Source text: as §1, §2, §3, §4

[2] = Subacute study in normal rats, continuous infusion: heart weight; format: in vivo, rats (Sprague-Dawley); conditions: continuous infusion 1 mg/kg/day
Source text: as §1, §3, §4

human hepatoma cells = conditions: via thyroid hormone receptor activation; cited from earlier work
[3] = parameters: species or system rats; conditions: rat, in vivo
Description: The oral bioavailability (OBAV) of Compound 12-1, a bis POM prodrug of Compound 7, was estimated by comparison of the dose-normalized area under the curve (AUC) of the plasma concentration-time profile of Compound 7 following IV and PO administration of Compound 7 and Compound 12-1, respectively, to normal rats.
Method: Groups of non-fasted male SD rats were administered either 5 mg/kg of Compound 7 by IV bolus or 20 mg/kg of Compound 12-1 by oral gavage. Prior to drug administration, the rats were catheterized at the tail artery to facilitate blood collection. Plasma samples were obtained at pre-specified time points following dosing, extracted with 1.5 volumes of methanol, and then assayed by an LC-UV method using a C18 column eluted with a gradient of 20% to 45% v/v acetonitrile in a potassium phosphate buffer pH 6.2 over 15 min with UV absorbance monitoring at 280 nm. The AUC values were determined noncompartmentally from the plasma concentration-time plots by trapezoidal summation to the last measurable time point.
Plasma levels of compound were analyzed by HPLC and the AUCs for the i.v. dose of 5 mg/kg and the p.o. dose of 20 mg/kg were compared. The maximum OBAV for Compound 19-2 was 0.003%. Typically, compounds that are taken forward as an oral drug candidate have OBAV values of at least 15-20%, when tested in an animal model. This minimal requirement for OBAV in a genetically homogenous model system insures that exposure can be accurately monitored when humans are treated with the compound. Furthermore, in a genetically variable background such as humans, the variability for a compound with low OBAV in genetically homogenous model systems, can be widely variable, leading some subjects to have much higher than anticipated exposure, while other subjects have no exposure.

[4] = Whole animal resting oxygen consumption; format: in vivo, Sprague Dawley rats
Description: Thermogenesis is a measurement of energy consumption. Compounds that increase thermogenesis are likely to increase caloric expenditure and thereby cause body weight loss and its associated benefits to metabolic status (e.g., insulin sensitivity). Thermogenesis is assessed in subcellular fractions of various tissues, isolated cells, whole tissues, or in whole animals using changes in oxygen consumption as the endpoint. Oxygen is used up when calories are burned by various metabolic processes. Methods: Animals are dosed once or several times a day via a parenteral or oral route for a treatment period ranging from 1 day to several weeks. Oxygen consumption is measured following a single or multiple days of treatment. In one assay, whole animal oxygen consumption is measured using an indirect calorimeter (Oxymax, Columbus Instruments, Columbus, Ohio). Animals are removed from their cages and placed in the chambers. The resting oxygen consumption is measured in animals during periods of inactivity as measured by activity monitors. The oxygen consumption is calculated based on the flow through the chamber and the difference in oxygen partial pressures at the inflow and outlet ports. Carbon dioxide (CO2) efflux is also measured in parallel using a CO2 electrode. […] Rats were placed in the FoxBox apparatus (Sable Systems, Las Vegas, Nev.), allowed to acclimate and the resting oxygen consumption was measured. The oxygen consumption rates were compared to pre-dose measurements taken on each individual animal. […] Thus, the compounds of the present invention are useful in increasing oxygen consumption.

[5] = Cardiovascular activity in the Sprague Dawley rat (HR, LV dP/dt, aortic pressure, heart weight); format: in vivo; conditions: SD rats, 7 days
Source text: Method: […] The control group (n=6) was given vehicle only. […] On the 7th day after the start of dosing, animals were anesthetized with Isofluorane and the left ventricle cannulated with a high fidelity catheter tip transducer via the right carotid artery. Left ventricular pressure, its first derivative (LVdP/dt), lead I ECG, and heart rate (HR) triggered off the ECG waveform, were digitally recorded. LV dP/dt is a well accepted measure of ionotropic state. Systolic and diastolic aortic pressures were measured by retracting the catheter into the proximal aorta.

[6] = rat, in vivo, 28 days
Description: Compound 18 was administered at doses up to 5 mg/kg/d. Compound cis-13-1 was administered at doses up to 50 mg/kg/d. We reasoned that the ZDF rat, as a metabolically challenged animal model, would be more sensitive to the potential adverse cardiac effects of thyromimetics than a normal, cholesterol-fed rat. At sacrifice, heart rate, and the first derivative of left ventricular pressure (LV dP/dt) were measured with a Millar catheter inserted into the left ventricle.

plasma cholesterol = assay: Cholesterol lowering in hypercholesterolemic rats; format: in vivo; conditions: Rattus norvegicus, po; delivered p.o. (0.5 mg/kg/d); percentage change from pre-dose cholesterol; read-out: % Cholesterol Lowering
Glucose in ZDF rats = format: in vivo
Description: The decrease was dose dependent. Blood glucose levels at those doses corresponded to 442 mg/dL and 243 mg/dL, respectively. Similar changes were also evident at two weeks, post-treatment.

serum cholesterol = assay: Subacute study in cholesterol-fed rats, IP: serum cholesterol; format: in vivo; conditions: IP once-a-day for seven days
[7] = Subacute study in cholesterol-fed rats, IP: heart weight and heart mGPDH activity
Method: The cholesterol-fed rat is an animal model of hypercholesterolemia generated by feeding the animals a diet with high cholesterol content.
Serum cholesterol values were assessed and the animals randomized into groups for treatment.

[8] = Tissue distribution and pharmacokinetics following IP administration to normal rats; format: in vivo, SD rats; conditions: 10 mg/kg IP
Source text: At pre-selected time points following dosing, the rats were anesthetized using iso-fluorane and the peritoneal cavity was then opened and a blood sample was obtained from the abdominal vena cava. In addition, liver, kidney, and heart were excised and immersed in 3 volumes of cold 60% acetonitrile. The blood samples were briefly centrifuged and the plasma fraction was then extracted with 1.5 volumes of methanol, processed, and analyzed by LC-UV as described in Example G. The frozen liver, kidney, and heart tissue were homogenized in 60% v/v acetonitrile, centrifuged, and then analyzed by LC-UV. Pharmacokinetic parameters and AUC of the plasma and tissue concentration-time profiles were determined noncompartmentally by WinNonLin.

[9] = Continuous infusion study in rats on a cholesterol-containing diet; format: in vivo; conditions: continuous infusion 1 mg/kg/day
Method: Screening for thyromimetic activity was performed in normal rats maintained on a cholesterol-containing diet. Compounds were administered by continuous infusion using an osmotic pump at 1 mg/kg/day.

[10] = rodent models and monkeys; cited from earlier work
[11] = in the monkey; cited from earlier work
[12] = effects on cholesterol and TSH at the same or not pharmacologically different doses; cited from earlier work

## N[C@@H](Cc1ccc(Oc2cc(I)c(O)c(I)c2)c(I)c1)C(=O)O [Compound T3, 3,3′,5′-triiodothyronine, reference compound]
[1]
  Liver GPDH: 406% of control
Liver triglycerides
  reduction in liver triglycerides: 4%
Heart mGPDH activity
  Heart GPDH: 284% of control
[2]
  Heart Weight: 146% of control

## Cc1cc(NC(=O)C(=O)O)cc(C)c1Oc1ccc(O)c(C(C)C)c1 [CGS23425, [[4-[4-hydroxy-3-(1-methylethyl)phenoxy]-3,5-dimethylphenyl]amino]oxo acetic acid]
Human hepatoma cells
  apoAI expression: increased apoAI expression

## Cc1cc(OC[P@@]2(=O)OCC[C@@H](c3cccc(Cl)c3)O2)cc(C)c1Cc1ccc(O)c(C(C)C)c1 [Compound cis-13-1]
[3]
  OBAV when AUC's of Compound cis-13-1 are used: 25%
  OBAV when comparing the AUC's of Compound 7: 40-50%
[4]; 3 mg/kg/d orally for 14 days
  Oxygen consumption following treatment, % of the pre-dose rate: 116%
[4]; 10 mg/kg/d orally for 14 days
  Oxygen consumption following treatment, % of the pre-dose rate: 125%
[4]; 30 mg/kg/d orally for 14 days
  Oxygen consumption following treatment, % of the pre-dose rate: 132%
[5]; oral gavage 1, 5, 10, 30, 50 mg/kg/day
  HR, LV dP/dt, systolic and diastolic aortic pressures: not significantly different compared to vehicle treated animals
[5]; oral gavage 1-50 mg/kg/day
  heart weight or heart weight/body weight ratios: no significant changes in heart weight
[6]; ZDF
  TI Improvement over Compound 18, ED15 HR: >39
  TI Improvement over Compound 18, ED25 LV dP/dt: >102
[6]
  calculated TI with respect to LV dP/dt: > 10,000
  calculated TI with respect to heart rate: > 3900
Plasma cholesterol
  change in vivo at 0.5 mg/kg/day: -31.8%
Glucose in ZDF rats
  water consumption: dose-dependent decrease in the water consumption
Glucose in ZDF rats; 4 weeks of treatment, decreased from 618 mg/dL
  Plasma glucose at sacrifice: 437 mg/dL
Glucose in ZDF rats; 4 weeks of treatment, versus 442 mg/dL
  Blood glucose levels: 243 mg/dL

## Cc1cc(OCC(=O)O)cc(C)c1Cc1ccc(O)c(C(C)C)c1 [Compound 17, [3,5-dimethyl-4-(4′-hydroxy-3′-iso-propylbenzyl)phenoxy]acetic acid, reference compound]
Serum cholesterol
  doses that significantly decreased serum cholesterol: 0.1 to 1 mg/kg/day
[7]; IP once-a-day for seven days
  cardiac hypertrophy: cardiac hypertrophy was observed
[7]; IP, 1 mg/kg/day
  Cardiac GPDH activity: increased
[1]
  Liver GPDH: 426% of control
Heart mGPDH activity
  Heart GPDH: 277% of control
[2]
  Heart Weight: 134% of control
[8]
  Heart AUC: 27.6 nmol·h/g
  Kidney AUC: 1.1 nmol·h/g
  Liver AUC: 48.5 nmol·h/g
[8]; male, SD, rat, plasma
  AUC: 2800 ng·h/mL
  Cmax: 3490 ng/mL
  Tmax: 20 min
[8]; male, SD, rat, plasma, read-out: Cl(observed)/F (converted)
  CL/F: 56 mL/min/kg
[8]; male, SD, rat, plasma, read-out: Vz(observed)/F
  Vd/F: 2.2 L/kg
[8]; plasma
  AUMClast: 1.7683 μg * hr^2/mL
  Tlast: 2 h
[9]
  increase of systolic and diastolic blood pressure: 30%
[9]; day 7
  cholesterol: significant decrease in cholesterol
  increase of heart rate: 40%
[9]; day 14
  cholesterol: no significant decrease in cholesterol was observed
[9]; end-of-life
  increase of LV dP/dt: 71%
  left ventricular weight: increased

## CC(C)c1cc(Oc2c(Cl)cc(CC(=O)O)cc2Cl)ccc1O [3,5-dichloro-4-[4-hydroxy-3-(1-methylethyl)phenoxy]benzeneacetic acid]
[10]
  weight loss in animals: weight loss
[11]
  Lp(a) levels: decrease Lp(a) levels
[12]
  TSH levels: dose-dependently lower
  cholesterol levels: dose-dependently lower
